Assay results from patent publication EP0708091A1, “Indoloylguanidine derivatives” (SUMITOMO PHARMACEUTICALS COMPANY, LIMITED, priority 1994, dated 1996).
Counter-ions that a name gives are not always drawn.

Target: T1, Na⁺/H⁺ exchanger (Rattus norvegicus, UniProt P26431)
T1 construct: using the vascular smooth muscle cells isolated from the rat thoracic aorta; endogenous in cells; host or cells: primary vascular smooth muscle cells isolated from rat thoracic aorta
Assay: Inhibition of Na+/H+ exchanger activity in vitro (change in cell viability during acid loading)
Type: cell-based
Settings: minimum effective concentration (MEC), vascular smooth muscle cells isolated from the rat thoracic aorta
Protocol: Inhibition of Na+/H+ exchanger activity in vitro Method:
The experiment was performed by modifying the method of Mungre et al. described in Exp. Cell Res., 193, 236 (1991). That is, inhibition of the Na⁺/H⁺ exchanger activity was evaluated by the change in cell viability during acid loading, using the vascular smooth muscle cells isolated from the rat thoracic aorta.
The compounds of the present invention shown in Examples were evaluated by the minimum effective concentration (MEC) for the inhibition of the Na⁺/H⁺ exchanger activity.

T1 sequence (P26431 whole entry): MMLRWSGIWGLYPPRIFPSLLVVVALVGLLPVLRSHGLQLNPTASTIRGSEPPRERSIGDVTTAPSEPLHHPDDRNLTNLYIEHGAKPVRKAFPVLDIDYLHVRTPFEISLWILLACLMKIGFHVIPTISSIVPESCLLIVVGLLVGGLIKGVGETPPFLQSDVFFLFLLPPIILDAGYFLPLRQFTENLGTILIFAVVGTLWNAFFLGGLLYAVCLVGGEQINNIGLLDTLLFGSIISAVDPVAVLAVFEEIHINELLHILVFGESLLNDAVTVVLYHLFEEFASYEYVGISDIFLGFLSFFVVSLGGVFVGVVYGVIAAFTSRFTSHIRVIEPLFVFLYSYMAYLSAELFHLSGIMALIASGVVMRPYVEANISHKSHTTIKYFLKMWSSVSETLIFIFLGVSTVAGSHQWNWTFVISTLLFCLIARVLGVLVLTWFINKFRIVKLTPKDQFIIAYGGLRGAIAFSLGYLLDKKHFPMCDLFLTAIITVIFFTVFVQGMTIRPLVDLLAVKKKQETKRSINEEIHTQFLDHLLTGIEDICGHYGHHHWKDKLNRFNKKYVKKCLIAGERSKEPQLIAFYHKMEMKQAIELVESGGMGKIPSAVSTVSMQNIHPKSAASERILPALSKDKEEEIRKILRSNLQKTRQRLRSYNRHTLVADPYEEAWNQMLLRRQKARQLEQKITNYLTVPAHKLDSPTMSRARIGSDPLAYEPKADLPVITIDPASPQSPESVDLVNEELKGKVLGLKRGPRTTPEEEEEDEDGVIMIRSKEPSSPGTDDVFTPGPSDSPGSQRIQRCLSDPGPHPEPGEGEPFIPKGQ

SMILES	Inhibition of Na^+/H^+ Exchanger MEC [µM]
NC(N)=NC(=O)c1nc(Cl)c(N2CCCCCC2)nc1N [5-Hexamethylene amiloride, reference compound]	0.3
CN(C)c1nc(N)c(C(=O)N=C(N)N)nc1Cl [Dimethyl amiloride, reference compound]	3.0
CN(C)CCCOc1ccc(Cl)c2cc(C(=O)NC(=N)N)n(C)c12 [Example 74, 4-Chloro-7-(3-dimethylaminopropoxy)-l-methyl-2-indoloylguanidine dihydrochloride]	0.1
N=C(N)NC(=O)c1cc2ccccc2n1CCN1CCCC1 [Example 144, 1-[2-[(N-Pyrrolidinyl)ethyl]-2-indoloylguanidinedihydrochloride]	>10
Cn1c(C(=O)NC(=N)N)cc2c(Cl)cc(OCCN)cc21 [Example 175, 6-(2-Aminoethoxy)-4-chloro-l-methyl-2-indoloylguanidine dihydrochloride]	0.03
